From PMC8213385, “Development of a Fluorescent Assay to Search New Drugs Using Stable tdTomato-Leishmania, and the Selection of Galangin as a Candidate With Anti-Leishmanial Activity” (Frontiers in Cellular and Infection Microbiology, 2021)

Tests used:
[1] = tested on: intracellular amastigotes of L. (L.) amazonensis; assay: Microscopic assay, counting intracellular amastigotes in Raw 264.7 macrophages at the optic microscope; type: cell-based, Leishmania (Leishmania) amazonensis
Experimental: (§1) Furthermore, the efficacy of MI was also determined against intracellular amastigotes of L. amaz/tc3 and L. amaz/wt. Raw 264.7 macrophages were plated in 96-well black plate (5 x 10^4 cells/well) and in eight well Lab-Tek tissue culture slides (6.6 x 10^4 cells/ml) (Nunc, USA). The cells were infected with promastigotes in stationary phase of L. amaz/tc3 and L. amaz/wt (1:20 ratio) at 33°C, 5% CO2. After incubation, the infected macrophages were washed to remove non-internalized parasites with PBS plus P-S. New RPMI-1640 medium with different concentrations of MI (20 to 0.62 µg/ml) was added to each well and incubated at 33°C, 5% CO2 during 48 h. The anti-leishmanial activity of MI was determined by measuring the fluorescence of intracellular amastigotes of L. amaz/tc3 in a plate reader (Tecan, Männedorf, Switzerland). The viability was calculated as mentioned above, and the IC50 was also estimated. Simultaneously, the leishmanicidal activity of MI against L. amaz/wt was determined by the microscopy test. In this case, the infected macrophages were stained with Diff Quik (Biopur S.R.L., Rosario, Argentina) and the number of intracellular amastigotes was determined in 200-500 macrophages in treated and control cultures per slide under the immersion lens microscope (100x) (Leitz Wetzlar, Germany). The infection index (II) and the % infectivity (I) were calculated by the following formulas: II = IM × A, where IM= infected macrophages (%), A= number of amastigotes per infected macrophages; and I(%)=IIT/IIc×100, where IIT= infection index in treated cultures, IIC= infection index in control cultures ([Ayres et al., 2008]). The IC50 of MI was calculated.
Then, to estimate the IC50 values of GAL, FI and MO; and to confirm the IC50 of RU, the activity was evaluated quantifying the intracellular amastigotes at the optic microscope. We followed the same methodology described for MI (microscopic assay) in “In Vitro, Fluorescent Assay Validation” section and the range of concentrations were for GAL (30 to 7.5 µM), FI (60 to 15 µM), RU and MO (200 to 50 µM), EGCG (142 a 17.7 µM).

[2] = Cytotoxicity in macrophage cell line by the MTT method (colorimetric); type: cell-based; settings: mouse, Raw 264.7 macrophage cell line; Raw 264.7, MTT, 48 h; read-out: Colorimetric CC50 μM (SE)
Experimental: The cytotoxicity against a cell line of macrophages (Raw 264.7) of GAL, MO, FI, RU, EGCG, PE, MI and MA was determined by the MTT method. Cells (3.3 x 10^5/ml) cells were treated with different concentrations of each compound during 48 h at 37°C, 5% CO2. The controls were incubated with RPMI-1640 medium. Briefly, 50 µl of MTT (2 mg/mL) was added to each well and, after 4 h of incubation at 37°C, 5% CO2, the reaction was stopped dissolving the formazan crystals with 100 µl/well of dimethyl sulfoxide. The relative amount of formazan produced by viable macrophages was determined using a spectrophotometer at 595 nm. The percentage of viable cells was calculated according to the formula (OD treated culture−OD blank)/(OD control−OD blank) ×100 as was described previously ([Adinehbeigi et al., 2017]). The cytotoxicity concentration 50% (CC50) was calculated for each compound.

[3] = tested on: intracellular amastigotes of L. amaz/tc3; assay: Fluorescence assay in the macrophage-amastigote model (Raw 264.7 infected with L. amaz/tc3); type: cell-based, Leishmania (Leishmania) amazonensis
Experimental: as §1
The flavonoids anti-leishmanial activity was also evaluated against intracellular amastigotes. Macrophages (Raw 264.7) were plated in 96-well black plate (5 x 10^4 cell/well) and infected with promastigotes in stationary phase of L. amaz/tc3 (1:20 ratio) at 33°C, 5% CO2. After incubation, the infected macrophages were washed to remove non-internalized parasites with PBS plus P-S. New RPMI-1640 medium with different concentrations of GAL (30 to 3.75 µM), MO (300 to 37.5 µM), FI (65 to 8.12 µM), RU (300 to 37.5 µM) and EGCG (30 to 7.5 µM) was added to each well and incubated at 33°C, 5% CO2 for 48 h. Infected cells treated with Ma (136.6 to 34.1 µM) were the positive controls, and cells incubated only with RPMI-1640 were the negative control. The infected macrophages were incubated during 48 h at 33°C, 5% CO2. After treatment, the fluorescence of intracellular amastigotes of L. amaz/tc3 was measured in a plate reader (Tecan, Männedorf, Switzerland). The viability was determined as was described for MI (fluorescent assay). The selectivity index (SI) (CC50 for macrophages/IC50 for Leishmania) was calculated.

[4] = tested on: promastigotes of L. amaz/tc3; assay: Transmission electron microscopy of treated promastigotes; type: cell-based, Leishmania (Leishmania) amazonensis; settings: exposed to the IC50, 48 h
Experimental: Ultrastructural alterations in Leishmania induced by flavonoids with anti-leishmanial activity were analyzed by transmission electron microscopy (TEM). […] The control was a culture of L. amaz/tc3 incubated in complete RPMI-1640 medium. After 48 h of incubation, samples of L. amaz/tc3 promastigotes from each culture were fixed in modified Karnovsky’s solution (formaldehyde [2.66%], glutaraldehyde [1.66%]) and PBS 0.1M (pH 7,4), and incubated overnight at 4°C. The fixed samples were post-fixed with a 1/1 solution of PBS/2% osmium tetroxide (OsO4), overnight. Then the material was dehydrated and included in Spurr (Pelco, USA). Ultrathin sections were cut with an ultramicrotome (MT1, Sorvall, USA), mounted on copper grids, and contrasted with uranyl acetate (PELCO, USA) and lead citrate.

## O=c1c(O)c(-c2ccccc2)oc2cc(O)cc(O)c12 [GAL, Galangin]
[1]; CC50 for macrophages/IC50 for Leishmania (intracellular amastigotes; Ma from fluorescence IC50)
  SI (Selectivity index): 1.1
[1]; Leishmania amazonensis, RAW264.7, Raw 264.7 macrophages, 48 h, optic microscope, read-out: Microscopic IC50 μM (SE), intracellular amastigotes
  IC50: 20.6 µM
[2]
  CC50 at 48 h: 22.8 µM
[3]; 15 µM, 48 h
  Fluorescence Inhibition (%) of amastigotes: 29%
[3]; Leishmania, RAW264.7, 48 h, read-out: Fluorescence Inhibition (%) of amastigotes, 15 µM, 48 h
  inhibition at 15 µM: 29 to 31%
[4]
  Ultrastructural alterations in promastigotes (TEM): dramatic changes in the mitochondrial structure
